Test systems include SNB-75 CNS; OVCAR-5 ovarian; UACC-257 melanoma; SF-539 CNS; NCI-H522 lung; HL-60(TB) leukemia; M14 melanoma; KM12 colon; UO-31 renal; MOLT-4 leukemia.
What all share (assay): NCI-60 cell line screen, 48 h

“And” between values parts separate entries of the source, which are not always exact repeats. Equal entries are not always repeated.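 In this assay, cells in 96-well plates receive the compound at five concentrations for 48 hours. Endpoints are linearly interpolated between the surrounding concentrations. Abbreviation: GI50, concentration required for 50% inhibition of growth. TGI is the concentration that stops growth completely.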 A value given as a limit tells only on which side of the number the result lay.

As to `C(=N\NC1=NCCCCN1)/c1ccc2ccccc2c1`, the TGI is above 100 µM in the experiment with SNB-75 CNS; 76.7 µM in the experiment with OVCAR-5 ovarian; 46.6 µM in the experiment with UACC-257 melanoma; 51.3 µM in the experiment on SF-539 CNS; 87.1 µM in the experiment on NCI-H522 lung; 62.8 µM with HL-60(TB) leukemia. Moreover, the TGI in the experiment on M14 melanoma was 28 µM; with KM12 colon it was above 100 µM; in the experiment on UO-31 renal, above 100 µM; with MOLT-4 leukemia, 53.2 µM.
Consider `COC(=O)C1(Cc2ccc3c(c2)CCC3)Cc2ccc3c(c2C1=O)CCC3` (centres undefined), for which the TGI was above 55.5 µM in the experiment with SNB-75 CNS; above 100 µM in the experiment on OVCAR-5 ovarian; above 100 µM with UACC-257 melanoma; 34.8 µM with SF-539 CNS; 18.8 µM in the experiment on NCI-H522 lung; 8.83 µM in the experiment on HL-60(TB) leukemia. Also, the TGI is 33.1 µM in the experiment on M14 melanoma, above 100 µM in the experiment on KM12 colon, above 100 µM in the experiment with UO-31 renal and 36.5 µM in the experiment on MOLT-4 leukemia.
Take `CCOP(=O)(OCC)C(c1ccc(F)cc1)N(C(=O)NC(F)(F)F)c1ccc(F)cc1` (centres undefined): the TGI with SNB-75 CNS, in the experiment with OVCAR-5 ovarian, with UACC-257 melanoma, with SF-539 CNS, in the experiment with NCI-H522 lung and in the experiment with HL-60(TB) leukemia was above 100 µM throughout. The TGI in the experiment on M14 melanoma, with KM12 colon, in the experiment with UO-31 renal and with MOLT-4 leukemia was above 100 µM throughout.
Regarding `CC(C)(C)OC(=O)NC(CSCc1ccc(C(=O)c2ccccc2)cc1)C(=O)N1CCN(CCCCN2c3ccccc3Sc3cc(N=[N+]=[N-])ccc32)CC1` (centres undefined), the TGI in the experiment on SNB-75 CNS, in the experiment with OVCAR-5 ovarian, with UACC-257 melanoma, in the experiment with SF-539 CNS, in the experiment with NCI-H522 lung and in the experiment on HL-60(TB) leukemia was above 100 µM each time. In addition, the TGI in the experiment on M14 melanoma, in the experiment with KM12 colon, in the experiment with UO-31 renal and in the experiment on MOLT-4 leukemia was above 100 µM throughout.
Take `COC(=O)[C@@]12CSC[C@]1(C(=O)OC)N[C@@H](c1ccccc1O)C2`: the TGI in the experiment on SNB-75 CNS, in the experiment on OVCAR-5 ovarian, in the experiment with UACC-257 melanoma, in the experiment on SF-539 CNS, with NCI-H522 lung and in the experiment on HL-60(TB) leukemia was above 100 µM in each case. Moreover, the TGI with M14 melanoma, with KM12 colon, with UO-31 renal and in the experiment with MOLT-4 leukemia was above 100 µM each time.
On to `O=[N+]([O-])c1ccc2c(c1)nc1n2C(c2c(F)cccc2F)SC1` (centres undefined), for which the TGI with SNB-75 CNS, in the experiment with OVCAR-5 ovarian, in the experiment with UACC-257 melanoma, with SF-539 CNS, in the experiment with NCI-H522 lung and in the experiment on HL-60(TB) leukemia was above 100 µM in each case. In addition, the TGI in the experiment on M14 melanoma, in the experiment with KM12 colon, in the experiment with UO-31 renal and with MOLT-4 leukemia was above 100 µM in each case.
In the case of `N=c1oc2ccc3ccccc3c2cc1-c1nc2ccccc2c(=O)[nH]1`, the TGI was 19.6 µM with SNB-75 CNS; above 100 µM in the experiment with OVCAR-5 ovarian; above 100 µM with UACC-257 melanoma; above 100 µM in the experiment with SF-539 CNS; 28.8 µM in the experiment with NCI-H522 lung; above 100 µM with HL-60(TB) leukemia. Further, the TGI was above 100 µM in the experiment with M14 melanoma, 43 µM with KM12 colon, 32.8 µM with UO-31 renal and above 100 µM in the experiment with MOLT-4 leukemia.
For `Nc1cc(OCC2CCCCC2)nc(N)n1`, the TGI in the experiment on SNB-75 CNS, in the experiment on OVCAR-5 ovarian, in the experiment on UACC-257 melanoma, in the experiment on SF-539 CNS, with NCI-H522 lung and with HL-60(TB) leukemia was above 100 µM each time. The TGI with M14 melanoma, in the experiment on KM12 colon, in the experiment with UO-31 renal and in the experiment with MOLT-4 leukemia was above 100 µM each time.
`Cc1cc(=O)[nH]c2cc(NC(=O)C(C)NC(=O)C(C)NC(=O)C(C)NC(=O)OC(C)(C)C)ccc12` (centres undefined): the TGI in the experiment on SNB-75 CNS, in the experiment with OVCAR-5 ovarian, in the experiment with UACC-257 melanoma, in the experiment on SF-539 CNS, with NCI-H522 lung and in the experiment with HL-60(TB) leukemia was above 15 µM throughout. The TGI with M14 melanoma, in the experiment with KM12 colon, with UO-31 renal and in the experiment with MOLT-4 leukemia was above 15 µM in each case.
In the case of `O=C(CCCc1cccc2[nH]c3c(c12)CN(Cc1ccccc1)CC3)c1ccc(F)cc1`, the TGI with SNB-75 CNS was above 100 µM; in the experiment with OVCAR-5 ovarian it was above 100 µM; with UACC-257 melanoma, above 100 µM; with SF-539 CNS it was above 100 µM; in the experiment on NCI-H522 lung it was above 91.1 µM; with HL-60(TB) leukemia it was 10.3 µM. In addition, the TGI in the experiment on M14 melanoma, with KM12 colon, in the experiment on UO-31 renal and in the experiment on MOLT-4 leukemia was above 100 µM each time.
As for `COc1ccc2[nH]c3ccc4cc[n+](CCN5CCC(C6CCN(CC[n+]7ccc8ccc9[nH]c%10ccc(OC)cc%10c9c8c7)CC6)CC5)cc4c3c2c1`, the TGI with SNB-75 CNS is 50 µM; in the experiment on OVCAR-5 ovarian, 50 µM and > 91.1 µM; in the experiment on UACC-257 melanoma, 50 µM and > 100 µM; in the experiment with SF-539 CNS it was 50 µM and > 100 µM; in the experiment with NCI-H522 lung, > 50 µM and 5.27 µM; in the experiment with HL-60(TB) leukemia, 50 µM and 8.43 µM. For the same compound, the TGI is above 50 µM with M14 melanoma; 50 µM and > 92.7 µM with KM12 colon; 50 µM and > 100 µM with UO-31 renal; 50 µM and > 100 µM with MOLT-4 leukemia. The GI50 in the experiment with OVCAR-5 ovarian was 39.2 µM; with UACC-257 melanoma it was 12.1 µM; in the experiment with SF-539 CNS, 1.26 µM; in the experiment with NCI-H522 lung it was above 50 µM; in the experiment with HL-60(TB) leukemia it was 4.47 µM and 0.899 µM; in the experiment on KM12 colon, 0.631 µM. Further, the values for the GI50 with UO-31 renal and with MOLT-4 leukemia were 42.5 µM and 0.209 µM, respectively.
As to `ClCCCN1CCN(CCCl)CC1`, the GI50 was 43.2 µM in the experiment with SNB-75 CNS; 27.9 µM in the experiment on SF-539 CNS; 54.9 µM in the experiment on NCI-H522 lung; 77.2 µM in the experiment with M14 melanoma; 56.4 µM in the experiment on UO-31 renal; 1.39 µM with MOLT-4 leukemia. The TGI in the experiment on SNB-75 CNS is 681 µM; in the experiment with OVCAR-5 ovarian, 737 µM; in the experiment with UACC-257 melanoma it was above 1000 µM; in the experiment with SF-539 CNS it was 233 µM; with NCI-H522 lung, 356 µM; in the experiment on HL-60(TB) leukemia it was 62.3 µM and 141 µM. The TGI in the experiment with M14 melanoma is 872 µM; with KM12 colon, above 1000 µM; in the experiment with UO-31 renal, 493 µM; in the experiment on MOLT-4 leukemia, 110 µM.
